Test results from patent publication US20070154540A1 (KMSI CO., LTD., priority 2003, published 2007).
Read-outs that look alike come from different tables or passages of the source.

What was measured:
cancer cells = details: background statement; cited from earlier work
[1] = tested on: chondrocytes isolated from the cartilage of New Zealand white rabbits; assay: cells; type: cell-based; details: Oryctolagus cuniculus, Chondrocyte, read-out: IC50 values for apigenin on chondrocytes
Experimental: During culturing, on Days 1, 2, 4 and 6, IC50 values were measured by a MTT assay based on cell viability.

[2] = tested on: osteoarthritis-induced New Zealand white rabbits; assay: Collagen levels in joint synovial fluids (Sirius Red staining); type: in vivo
Excerpt: (§1) To prepare an osteoarthritis animal model, New Zealand white rabbits underwent anterior cruciate ligament transection (ACLT) in joints of their two hind legs. After three days, the rabbits were forced to sustain movement for four weeks in a space of 5×5 m^3 to induce substantial osteoarthritis. […] The following Examples 3 to 10 were all performed using joints of the osteoarthritis-induced New Zealand white rabbits prepared as in this Example 2.
Total collagen levels in synovial fluids were measured by Sirius Red staining (Heide T. R. et al., Histochem. […]. Then, total collagen levels were determined by measuring absorbance at 550 nm. A standard curve was obtained by measuring absorbance at 550 nm for collagen type I (C1188, Sigma) of various concentrations of 0, 100, 200, 300, 400 and 500 μg. Using the standard curve, collagen levels in synovial fluids were determined.

[3] = tested on: osteoarthritis-induced New Zealand white rabbits; assay: Distribution and number of synovial cells; type: in vivo
Experimental: as §1
Tissues were prepared according to the same method as in Example 9 and evaluated for cell number and the condition of their surfaces. Cell number was measured at a site 120 μm in depth.

iNOS = assay: Western blotting of iNOS expression in LPS-treated RAW 264.7; type: cell-based, mice; details: LPS treatment = 100%, upon apigenin treatment
Experimental: (§2) A macrophage cell line derived from mice, RAW 264.7 (KCLB 40071), was purchased from the Korean Cell Line Bank. RAW 264.7 cells were seeded in a density of 3×10^6 cells onto 60-mm culture dishes containing DMEM (Dulbecco's Modified Eagle Medium, 12800-017, Gibco) supplemented with 10% FBS (fetal bovine serum, 26140-079, Gibco), 100 U/ml of penicillin and 100 μg/ml streptomycin (15140-122, Gibco), and cultured at 37° C. under 5% CO2 and humidity for 24 hrs. To induce NO production, RAW 264.7 cells were treated with 500 ng/ml of an E. coli cell wall component, lipopolysaccharide (LPS, […], Sigma). […] Herein, LPS was dissolved in distilled water, and apigenin was dissolved in DMSO. Then, the culture medium and a Griess reagent were mixed at a ratio of 1:1 (100 μl: 100 μl) and allowed to stand at room temperature for 10 min. Thereafter, absorbance was measured at 540 nm using a spectrophotometer (Power Wave X340, Bio-Tek). RAW 264.7 cells were treated under the same conditions as in Example 12. […] Herein, for IκBα expression, the cells were treated with LSP for only two hours. […] After protein concentrations in cell lysates were measured, […] protein samples were separated on an 8-16% SDS (sodium dodecyl sulfate) polyacrylamide gel (EC60452, NOVEX). […]

IκBα = assay: Western blotting of IκBα expression in LPS-treated RAW 264.7; type: cell-based, mice; details: normal = 100%, LPS (two hours) 18.56%, 10 μM of apigenin
Experimental: as §2

In the case of `O=c1cc(-c2ccc(O)cc2)oc2cc(O)cc(O)c12` [apigenin, 4′,5,7-trihydroxyflavone], the “concentration at which apigenin acts effectively (anticancer activity)” value (cancer cells) is given as “lower than 50 μM”, the IC50 ([1]; 24 h) is given as roughly 200 µM and the IC50 ([1]; 48 h) is given as roughly 100 µM. The IC50 ([1]; 96 h) was roughly 40 µM, the IC50 ([1]; 144 h) was roughly 30 µM and the “Collagen levels in joint synovial fluids” value ([2]; apigenin-treated right leg (+), four weeks after drug injection) was 406.56 µg/mL. For the same compound, the “Collagen levels in joint synovial fluids” value ([2]; apigenin-treated right leg (+), four weeks after drug injection, listed as Apigenin) was 406.6 ± 0.63 µg/mL, the “Collagen levels in joint synovial fluids” value ([2]; apigenin-treated right leg (+), two weeks after drug injection) was 397.4 ± 0.69 µg/mL and the “Collagen levels in joint synovial fluids” value ([2]; non-treated left leg (−) of apigenin treatment group, four weeks after drug injection) was “about 1019.2 μg/ml”. The “Collagen levels in joint synovial fluids” value ([2]; non-treated left leg (−) of apigenin treatment group, four weeks after drug injection, listed as Apigenin) was 1019.2 ± 0.79 µg/mL, the “Collagen levels in joint synovial fluids” value ([2]; non-treated left leg (−) of apigenin treatment group, two weeks after drug injection) was 749.4 ± 0.46 µg/mL and the “decrease in synovial cell number compared to the control group” value ([3]; after osteoarthritis induction) was “about 34.5%”. For the same compound, the “number of synovial cells” value ([3]; after osteoarthritis induction, measured at a site 120 μm in depth, control group 632.3) was 406.6, the “surface of synovial membrane section” value ([3]; right leg, compared with control group treated with physiological saline) was “relatively smooth surface” and the iNOS expression level (iNOS) was 0%. For the same compound, the IκBα expression level (IκBα) was 75.82%.
